Experimental data from patent US9359298B2, “Cajanine structure analogous compound, preparation method and use” (INSTITUTE OF MEDICINAL BIOTECHNOLOGY, CHINESE ACADEMY OF …, priority 2011, dated 2016).
≈ marks a conversion by molar mass, not a printed value. Like-named read-outs stand apart in the source and are kept apart here.

Experiments:
Type in all cases: cell-based
HIV-1 III B virus = assay: Anti-HIV activity assay (P24 antigen in MT-4 cells); details: for IC50: Human immunodeficiency virus 1, MT4, 96 h, read-out: HIV IC50; for anti-HIV viral activity: statement in words
[1] = system: Influenza A virus (hanfang359/95); assay: Determination of anti-influenza virus activity (CPE in MDCK cells); details: for IC50: Influenza A virus, MDCK, 36 h; for anti-influenza virus activities compared with the lead compound cajanine: statement in words
Coxsackie virus B6 = assay: Coxsackie virus activity assay (CPE in Vero cells); details: Vero
HCV = assay: Anti-hepatitis C virus (HCV) activity assay (HCV RNA in Huh7.5 cells); details: for EC50: Hepatitis C virus, Huh7.5, 72 h, read-out: HCV EC50; for anti-HCV viral activity: statement in words
Description: Inoculate Huh7.5 cells into 96-well plates to a density of 3×10^4 cells/cm^2, culture for 24h, infect the cells with 45 IU/cell HCV supernatant, meanwhile, add drug solutions or solvent control for treatment.

[2] = MT-4 cells, HIV-1 III B 100TCID50, 96 h, P24 antigen
[3] = read-out: COX-B6 IC50, Vero cells, about 100TCID50, CPE, Reed-Muench
[4] = Huh7.5 cells, 72 h, HCV RNA by RT-PCR, Reed-Muench

| SMILES | IC50 (HIV-1 III B virus; [2]) | anti-HIV viral activity (HIV-1 III B virus) | IC50 [1] | IC50 (Coxsackie virus B6; [3]) | EC50 (HCV; [4]) | anti-HCV viral activity (HCV) | anti-influenza virus activities compared with the lead compound cajanine [1] | IC50 (HIV-1 III B virus) | IC50 (Coxsackie virus B6; read-out: COX-B6 IC50) | EC50 (HCV) |
| --- | --- | --- | --- | --- | --- | --- | --- | --- | --- | --- |
| COC(=O)c1c(/C=C/c2ccccn2)cc(OC)c(CC=C(C)C)c1O [Compound 8t, methyl 2-hydroxy-3-isopentenyl-4-methoxy-6-[(E)-2-(pyrid-2-yl)ethenyl]benzoate] | 0.6 µg/mL (≈ 1.7 µM) | stronger anti-HIV, HCV viral activities | 0.12 µg/mL (≈ 0.34 µM) | 1.32 µg/mL (≈ 3.73 µM) | 0.64 µg/mL (≈ 1.81 µM) | stronger anti-HIV, HCV viral activities |  |  |  |  |
| COC(=O)c1c(/C=C/c2cc(OC)c(OC)c(OC)c2)cc(OC)c(CC=C(C)C)c1O [Compound 8u, methyl 2-hydroxy-3-isopentenyl-4-methoxy-6-[(E)-(3,4,5-trimethoxy-styryl)]benzoate] | 1.49 µg/mL (≈ 3.37 µM) | stronger anti-HIV, HCV viral activities | 0.11 µg/mL (≈ 0.249 µM) | 1.65 µg/mL (≈ 3.73 µM) | 0.67 µg/mL (≈ 1.51 µM) | stronger anti-HIV, HCV viral activities |  |  |  |  |
| COC(=O)c1c(/C=C/c2cc(OC)ccn2)cc(OC)c(CC=C(C)C)c1O [Compound 8v, methyl 2-hydroxy-3-isopentenyl-4-methoxy-6-[(E)-2-(4-methoxypyrid-2-yl)ethenyl]benzoate] | 1.01 µg/mL (≈ 2.63 µM) | stronger anti-HIV, HCV viral activities | 0.87 µg/mL (≈ 2.27 µM) | 2.68 µg/mL (≈ 6.99 µM) | 2.39 µg/mL (≈ 6.23 µM) | stronger anti-HIV, HCV viral activities |  |  |  |  |
| COC(=O)c1c(/C=C/c2ccccc2)cc(OC)c(CC=C(C)C)c1OC(=O)CN [Compound 24a] | 1.79 µg/mL (≈ 4.37 µM) |  | 2.31 µg/mL (≈ 5.64 µM) | 3.21 µg/mL (≈ 7.84 µM) | 0.98 µg/mL (≈ 2.39 µM) |  |  |  |  |  |
| COc1cc(/C=C/c2ccccc2)cc(OC(=O)CN)c1CC=C(C)C [Compound 24c, 2-isopentenyl-3-aminoacetoxy-5-[(E)styryl]anisole] | 2.78 µg/mL (≈ 7.91 µM) |  | 1.24 µg/mL (≈ 3.53 µM) | 0.98 µg/mL (≈ 2.79 µM) | 0.94 µg/mL (≈ 2.67 µM) |  |  |  |  |  |
| COC(=O)c1c(/C=C/c2ccccc2)cc(OC)c(CC=C(C)C)c1OC(=O)C1CCCN1 (stereo not drawn) [Compound 24d] | 0.81 µg/mL (≈ 1.8 µM) |  | 0.12 µg/mL (≈ 0.267 µM) | 0.45 µg/mL (≈ 1 µM) | 0.87 µg/mL (≈ 1.94 µM) |  |  |  |  |  |
| COc1cc(/C=C/c2ccccc2)cc(OC(=O)C2CCCN2)c1CC=C(C)C (stereo not drawn) [Compound 24f] | 1.01 µg/mL (≈ 2.58 µM) |  | 0.13 µg/mL (≈ 0.332 µM) | 0.21 µg/mL (≈ 0.536 µM) | 0.69 µg/mL (≈ 1.76 µM) |  | significantly stronger than the lead compound cajanine |  |  |  |
| COC(=O)c1c(/C=C/c2ccccc2)cc(OC)c(CC=C(C)C)c1OC(C)=O [Compound 24g, methyl 2-acetoxy-3-isopentenyl-4-methoxy-6-[(E)-styryl]benzoate] | 0.33 µg/mL (≈ 0.837 µM) |  | 0.25 µg/mL (≈ 0.634 µM) | 1.65 µg/mL (≈ 4.18 µM) | 0.83 µg/mL (≈ 2.1 µM) |  | significantly stronger than the lead compound cajanine |  |  |  |
| COc1cc(/C=C/c2ccccc2)cc(OC(C)=O)c1CC=C(C)C [Compound 24i] | 2.09 µg/mL (≈ 6.21 µM) |  | 0.15 µg/mL (≈ 0.446 µM) | 0.92 µg/mL (≈ 2.73 µM) | 0.99 µg/mL (≈ 2.94 µM) |  | significantly stronger than the lead compound cajanine |  |  |  |
| COC(=O)c1c(/C=C/c2ccccc2)cc(OC)c(CC=C(C)C)c1OC(=O)c1cccnc1 [Compound 24j, 2-(pyridyl-3-formylox)-3-isopentenyl-4-methoxy-6-[(E)-styryl]-benzoate] | 2.65 µg/mL (≈ 5.79 µM) |  | 2.36 µg/mL (≈ 5.16 µM) | 3.61 µg/mL (≈ 7.89 µM) | 1.35 µg/mL (≈ 2.95 µM) |  |  |  |  |  |
| COc1cc(/C=C/c2ccccc2)cc(OC(=O)c2cccnc2)c1CC=C(C)C [Compound 24l, 2-isopentenyl-3-(pyridyl-3-formyloxy)-5-[(E)-styryl]anisole] | 1.4 µg/mL (≈ 3.5 µM) |  | 1.04 µg/mL (≈ 2.6 µM) | 0.95 µg/mL (≈ 2.38 µM) | 1.6 µg/mL (≈ 4.01 µM) |  |  |  |  |  |
| COC(=O)c1c(/C=C/c2ccccc2)cc(OC)c(CC=C(C)C)c1OC(=O)CN(C)C [Compound 24m, 2-(N,N-dimethylacetyloxy)-3-isopentenyl-4-methoxy-6-[(E)-styryl]benzoate] | 2.6 µg/mL (≈ 5.94 µM) |  | 6.52 µg/mL (≈ 14.9 µM) | 3.46 µg/mL (≈ 7.91 µM) | 0.8 µg/mL (≈ 1.83 µM) |  |  |  |  |  |
| COc1cc(/C=C/c2ccccc2)cc(OC(=O)CN(C)C)c1CC=C(C)C [Compound 24o, 2-isopentenyl-3-(N,N-dimethylacetoxy)-5-[(E)-styryl]anisole] | 0.69 µg/mL (≈ 1.82 µM) |  | 2.31 µg/mL (≈ 6.09 µM) | 1.21 µg/mL (≈ 3.19 µM) | 1.34 µg/mL (≈ 3.53 µM) |  |  |  |  |  |
| COC(=O)c1c(/C=C/c2ccccc2)cc(OC)c(CC=C(C)C)c1OC(=O)c1cnc[nH]1 [Compound 24p] | 0.31 µg/mL (≈ 0.694 µM) |  | 1.32 µg/mL (≈ 2.96 µM) | 2.36 µg/mL (≈ 5.29 µM) | 0.77 µg/mL (≈ 1.72 µM) |  |  |  |  |  |
| COc1cc(/C=C/c2ccccc2)cc(OC(=O)c2cnc[nH]2)c1CC=C(C)C [Compound 24r] | 2.31 µg/mL (≈ 5.95 µM) |  | 0.98 µg/mL (≈ 2.52 µM) | 0.68 µg/mL (≈ 1.75 µM) | 1.05 µg/mL (≈ 2.7 µM) |  |  |  |  |  |
| COC(=O)c1c(/C=C/c2ccccc2)cc(OC)c(CC=C(C)C)c1OCN [Compound 26a] | 1.73 µg/mL (≈ 4.54 µM) |  | 2.31 µg/mL (≈ 6.06 µM) | 6.54 µg/mL (≈ 17.1 µM) | 2.09 µg/mL (≈ 5.48 µM) |  |  |  |  |  |
| COc1cc(/C=C/c2ccccc2)cc(OCN)c1CC=C(C)C [Compound 26c, 2-isopentenyl-3-aminomethoxy-5-[(E)-styryl]anisole] | 3.18 µg/mL (≈ 9.83 µM) |  | 1.35 µg/mL (≈ 4.17 µM) | 2.64 µg/mL (≈ 8.16 µM) | 2.07 µg/mL (≈ 6.4 µM) |  |  |  |  |  |
| COC(=O)c1c(/C=C/c2ccccc2)cc(OC)c(CC=C(C)C)c1OCC1CNCCN1 (stereo not drawn) [Compound 26d, methyl 2-(piperazin-2-yl)methoxy-3-isopentenyl-4-methoxy-6-[(E)-styryl]benzoate] |  |  | 1.36 µg/mL (≈ 3.02 µM) | 2.75 µg/mL (≈ 6.1 µM) | 1.53 µg/mL (≈ 3.4 µM) |  |  | 1.36 µg/mL (≈ 3.02 µM) |  |  |
| COc1cc(/C=C/c2ccccc2)cc(OCC2CNCCN2)c1CC=C(C)C (stereo not drawn) [Compound 26f, 2-isopentenyl-3-(piperazin-2-yl)methoxy-5-[(E)-styryl]anisole] | 1.61 µg/mL (≈ 4.1 µM) |  | 0.68 µg/mL (≈ 1.73 µM) | 0.98 µg/mL (≈ 2.5 µM) | 1.39 µg/mL (≈ 3.54 µM) |  | significantly stronger than the lead compound cajanine |  |  |  |
| COC(=O)c1c(/C=C/c2ccccc2)cc(OC)c(CC=C(C)C)c1OC(=N)N [Compound 27a, 2-iso-ureido-3-isopentenyl-4-methoxy-6-[(E)-styryl]-benzoate] | 2.48 µg/mL (≈ 6.29 µM) |  | 1.32 µg/mL (≈ 3.35 µM) | 2.34 µg/mL (≈ 5.93 µM) | 1.34 µg/mL (≈ 3.4 µM) |  |  |  |  |  |
| COc1cc(/C=C/c2ccccc2)cc(OC(=N)N)c1CC=C(C)C [Compound 27c, 2-isopentenyl-3-isoureido-5-[(E)-styryl]anisole] | 2.03 µg/mL (≈ 6.03 µM) |  | 0.54 µg/mL (≈ 1.61 µM) | 0.92 µg/mL (≈ 2.73 µM) | 1.26 µg/mL (≈ 3.75 µM) |  |  |  |  |  |
| COC(=O)c1c(/C=C/c2ccccc2)cc(OC)c(CC=C(C)C)c1OC(=O)NN [Compound 29a, methyl 2-Hydrazinoformyloxy-3-isopentenyl-4-methoxy-6-[(E)-styryl]benzoate] |  | stronger anti-HIV, HCV viral activities | 0.98 µg/mL (≈ 2.39 µM) |  |  | stronger anti-HIV, HCV viral activities |  | 0.43 µg/mL (≈ 1.05 µM) | 1.36 µg/mL (≈ 3.31 µM) | 0.51 µg/mL (≈ 1.24 µM) |
| COc1cc(/C=C/c2ccccc2)cc(OC(=O)NN)c1CC=C(C)C [Compound 29c, 2-isopentenyl-3-hydrazinoformylox-5-[(E)-styryl]anisole] |  |  | 0.24 µg/mL (≈ 0.681 µM) |  |  |  | significantly stronger than the lead compound cajanine | 0.6 µg/mL (≈ 1.7 µM) | 0.36 µg/mL (≈ 1.02 µM) | 0.89 µg/mL (≈ 2.53 µM) |
| COC(=O)c1c(/C=C/c2ccccc2)cc(OC)c(CC=C(C)C)c1OC(=O)C(=O)O [Compound 31a, methyl 2-carboxyformylxy-3-isopentenyl-4-methoxy-6-[(E)-styryl]benzoate] | 1.3 µg/mL (≈ 3.06 µM) |  | 0.14 µg/mL (≈ 0.33 µM) | 2.31 µg/mL (≈ 5.44 µM) | 0.71 µg/mL (≈ 1.67 µM) |  | significantly stronger than the lead compound cajanine |  |  |  |
| COc1cc(/C=C/c2ccccc2)cc(OC(=O)C(=O)O)c1CC=C(C)C [Compound 31c, 2-isopentenyl-3-carboxyformyloxy-5-[(E)-styryl]anisole] | 0.29 µg/mL (≈ 0.791 µM) | stronger anti-HIV, HCV viral activities | 0.08 µg/mL (≈ 0.218 µM) | 0.67 µg/mL (≈ 1.83 µM) | 0.77 µg/mL (≈ 2.1 µM) | stronger anti-HIV, HCV viral activities | significantly stronger than the lead compound cajanine |  |  |  |
| CCOC(=O)C1=C[C@@H](OC(CC)CC)[C@H](NC(C)=O)[C@@H](N)C1 [Oseltamivirphosphate, reference compound] |  |  | 0.22 µg/mL (≈ 0.704 µM) |  |  |  |  |  |  |  |
| NC(=O)c1ncn([C@@H]2O[C@H](CO)[C@@H](O)[C@H]2O)n1 [RBV, Ribavirin, reference compound] |  |  | 0.59 µg/mL (≈ 2.42 µM) | 412 µg/mL (≈ 1690 µM) |  |  |  |  |  |  |
